{"source": "patent US20220008508A1", "about": "“RELAXIN RECEPTOR 1 FOR USE IN TREATMENT AND PREVENTION OF HEART FAILURE” (Universität Heidelberg, priority 2018, published 2022)", "key": {"[1]": {"biological_target": "T1, rat RXFP1 (Rattus norvegicus, UniProt Q6R6I6)", "T1 construct": "expressed in transfected cells", "T1 sequence (Q6R6I6 1-758)": "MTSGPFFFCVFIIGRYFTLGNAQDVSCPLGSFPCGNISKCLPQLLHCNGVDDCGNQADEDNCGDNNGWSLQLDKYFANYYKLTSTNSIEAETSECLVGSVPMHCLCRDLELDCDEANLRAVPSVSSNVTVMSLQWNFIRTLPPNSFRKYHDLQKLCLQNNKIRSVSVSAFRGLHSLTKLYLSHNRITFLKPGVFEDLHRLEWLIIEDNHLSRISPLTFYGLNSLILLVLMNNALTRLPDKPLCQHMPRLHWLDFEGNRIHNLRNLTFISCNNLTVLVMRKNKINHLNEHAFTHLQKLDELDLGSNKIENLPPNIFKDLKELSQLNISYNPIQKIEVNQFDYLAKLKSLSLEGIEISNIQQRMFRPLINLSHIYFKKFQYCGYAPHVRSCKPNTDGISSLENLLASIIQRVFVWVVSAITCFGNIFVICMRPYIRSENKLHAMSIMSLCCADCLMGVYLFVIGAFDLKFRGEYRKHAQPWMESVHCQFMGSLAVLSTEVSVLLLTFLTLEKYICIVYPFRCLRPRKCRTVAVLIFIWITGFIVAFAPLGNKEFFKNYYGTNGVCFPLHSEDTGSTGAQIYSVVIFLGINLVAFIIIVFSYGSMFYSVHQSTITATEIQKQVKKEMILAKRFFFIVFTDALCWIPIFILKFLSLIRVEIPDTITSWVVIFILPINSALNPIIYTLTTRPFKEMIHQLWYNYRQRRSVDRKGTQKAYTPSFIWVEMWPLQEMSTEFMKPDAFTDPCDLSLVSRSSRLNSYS", "experiment": "P-PLB(S16) immunoblot in NRVMs transduced with rat RXFP1 virus", "format": "cell-based", "conditions": "1 μM ML290 for 30 minutes", "text": "(§1) Images were processed using Odyssey imaging software."}, "[2]": {"biological_target": "T2, human RXFP1 (Homo sapiens, UniProt Q9HBX9)", "T2 construct": "synthesized and cloned into a pCDNA3.1 plasmid with N-terminal FLAG-TAG; expressed in transfected cells; host or cells: neonatal rat ventricular cardiomyocytes (NRVMs) transduced with AAV6-huRXFP1", "experiment": "P-PLB(S16) immunoblot in NRVMs transduced with human RXFP1 virus", "format": "cell-based, rat", "text": "as §1"}, "[3]": {"biological_target": "T3, huRXFP1 (Homo sapiens, UniProt Q9HBX9)", "T3 construct": "FLAG huRXFP1 was cloned onto a place holder plasmid; expressed in transfected cells; host or cells: transgenic mice, cardiomyocyte expression under the alpha-MHC promoter (in vivo)", "T3 sequence (Q9HBX9 with tags, fused parts or gaps)": "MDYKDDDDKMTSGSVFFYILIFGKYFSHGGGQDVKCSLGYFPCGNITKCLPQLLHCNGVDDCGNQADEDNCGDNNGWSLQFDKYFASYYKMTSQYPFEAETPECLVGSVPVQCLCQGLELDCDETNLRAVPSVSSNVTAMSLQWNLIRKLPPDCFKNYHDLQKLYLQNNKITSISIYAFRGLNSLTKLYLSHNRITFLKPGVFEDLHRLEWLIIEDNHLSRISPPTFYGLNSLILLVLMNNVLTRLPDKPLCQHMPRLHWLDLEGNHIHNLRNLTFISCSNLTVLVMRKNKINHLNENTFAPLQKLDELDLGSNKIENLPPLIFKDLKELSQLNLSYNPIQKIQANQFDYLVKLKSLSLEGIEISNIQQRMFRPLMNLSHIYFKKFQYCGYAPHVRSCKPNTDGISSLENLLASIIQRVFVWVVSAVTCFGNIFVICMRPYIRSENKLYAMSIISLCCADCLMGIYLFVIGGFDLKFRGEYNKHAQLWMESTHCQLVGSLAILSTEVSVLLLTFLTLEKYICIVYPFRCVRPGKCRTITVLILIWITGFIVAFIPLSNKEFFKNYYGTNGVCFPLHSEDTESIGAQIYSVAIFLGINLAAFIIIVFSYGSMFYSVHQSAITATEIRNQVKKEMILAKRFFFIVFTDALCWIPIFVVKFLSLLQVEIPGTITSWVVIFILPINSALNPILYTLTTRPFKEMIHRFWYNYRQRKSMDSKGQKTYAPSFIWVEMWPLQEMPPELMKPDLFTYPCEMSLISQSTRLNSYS", "experiment": "Pressure-volume loop hemodynamics in huRXFP1 TG animals after RLN administration", "format": "in vivo, mouse", "conditions": "RXFP1 transgenic animals vs WT animals, 10 μg RLN I.P.", "protocol": "Pressure-volume loop (PV loop) measurement was performed modified from Abraham and Mao (Abraham and Mao (2015), J. Vis. Exp. (103): e52942). The animal was anesthetized according to the body weight with a cocktail of medetomidine, midazolam, and fentanyl intraperitoneally 15 minutes prior to the measurements. After the righting reflex was lost, the mouse was secured to the operating table with surgical tape. Prior to the measurement, the catheter tip was equilibrated in warm saline for 30 minutes. The neck and chest area was cleaned with ethanol and the fur was removed. An incision was made over the right carotid from mandible to sternum. The surrounding tissue was dissected to expose the right carotid, and the vagus nerve, which runs adjacent to the carotid, was […]. Sterile 6.0 silk suture was placed around the distal end (away from the chest) of the carotid artery, tied and secured. An additional suture was placed below the first suture on the carotid artery. The second suture was loosely tightened and clamped the carotid artery proximally to the second suture. […] The PV loops were continuously recorded throughout the experiment until 10 minutes after administration of the tested substances.\nminimum were calculated according to the manufacturer's recommendation (Transonic). […]"}, "[4]": {"test_system": "TAC-induced heart failure in mice", "experiment": "TAC heart failure model, echocardiography after AAV9-RXFP1 (rat) gene therapy with or without RLN pumps", "format": "in vivo, C57BL/6 mice", "conditions": "day 55, control AAV9.LUC virus, RLN pump", "protocol": "Transverse aortic constriction (TAC) operation was previously described (Rockman et al., 1991, Proc. Natl. Acad. Sci. 88: 8277-8281). TAC model was used as heart failure model. 8 weeks old C57BL/6 mice were weighted prior to the operation. TAC operation was performed on day 0 using 26-gauge blunt needle effectively reducing the diameter of the transverse aorta to approximately 0.46 mm (Rockman et al., 1994, Proc. Natl. Acad. Sci. 91(7): 2694-2698). Cardiac function was assessed by echocardiography (Vevo 2100 VisualSonics) before TAC operation (day −2), before virus infusion (day 7), before pump implantation (day 28), and at 2-month follow up (day 55) (FIG. 1A and B). […] Osmotic pumps (Alzet 2004) were implanted on day 28 with animals randomized to get either saline or recombinant relaxin pumps. Follow up assessments were performed on day 55 and the animals were sacrificed 3 days later. In addition, 17 mice served as control animals which underwent sham operation, followed by either saline or recombinant relaxin pump implantation.\nEchocardiography was performed using Vevo 2100, VisualSonics. The mice were shaved and held in prone position. […] The ejection fraction (EF), fractional shortening (FS), left ventricular internal diameter (LVIDd) and heart rate (HR) were calculated from 6 consecutive heartbeats in the M-mode using LV trace function."}, "[5]": {"test_system": "TAC-induced heart failure in mice", "experiment": "TAC heart failure model, echocardiography after huRXFP1 gene therapy with or without RLN pumps", "format": "in vivo, C57BL/6 mice", "conditions": "day 55, control AAV9.LUC virus, RLN pump", "protocol": "Heart failure model was generated by transverse aortic constriction operation (TAC) previously described (Rockman et al., 1991, Proc. Natl. Acad. Sci. 88: 8277-8281). 8 weeks old C57BL/6 mice were ordered and weighted prior to the operation. TAC operation was performed on day 0 using 26-gauge blunt needle effectively reducing the diameter of the transverse aorta to approximately 0.46 mm (Rockman et al., 1994, Proc. Natl. Acad. Sci. 91(7): 2694-2698). Cardiac function measurements were performed before Transverse aortic Constriction (TAC) operation (day −2) before virus infusion (day 7), before pump implantation (day 28), and at 2-month follow up time point (day 55) (FIG. 7A). […] Osmotic pumps were implanted on day 28 with animals randomized to get either saline or recombinant relaxin pumps. Follow up assessments were performed on day 55 and the animals were sacrificed 3 days later. In addition, 17 mice served as control animals that were sham operated followed by either saline or recombinant relaxin pumps implantation.\nEchocardiography was performed using Vevo 2100, VisualSonics. The mice were shaved on the chest and held in prone position. […] The ejection fraction (EF) was calculated from 6 consecutive heartbeats in the M-mode using LV trace function."}, "[6]": {"experiment": "Circulating plasma levels of recombinant relaxin H2 by ELISA", "format": "in vivo, mice", "conditions": "all animals receiving RLN by osmotic pump", "protocol": "Circulating plasma levels of recombinant relaxin H2 were measured using a ready to use relaxin H2 Quantikine ELISA kit from R&D Systems (DLR200). Plasma samples were diluted 1:200 to stay within the detection range of the assay. 50 μL of negative control, positive control, standard and diluted samples were used for the measurement."}, "[7]": {"test_system": "adult mouse cardiomyocytes expressing RXFP1", "experiment": "Ca2+ transient measurement in adult cardiomyocytes of RXFP1 transgenic mice", "format": "cell-based", "conditions": "isolated TG adult cardiomyocytes, 100 nM RLN, 1 minute", "text": "Adult mouse cardiac cells were isolated a modified protocol from Harding et al. (Harding et al., 1990, Cardioscience. 1: 49-54). The mouse heart was perfused with digestion buffer in the Langendorff technique, thus enabling dissociation of single cardiac cells. An adult male mouse (30-35 g) was quickly euthanatized by cervical dislocation. Incision areas on the abdomen and thorax were sterilized with 70% ethanol and opened with lateral cuts by scissors. The abdominal Vena Cava was exposed, and heparin was given I.V. Then the heart was exposed and cut out with a large portion of the aorta and quickly placed into a 6 cm Petri dish with 10 mL of room temperature perfusion buffer. The aorta was slid onto the cannula of the Langendorff apparatus and fixed with a double knots surgical suture. Perfusion was started immediately with a drip rate of ˜3.5 mL/min. Filling of the coronary arteries was checked and evaluated in order to determine, if the heart was correctly positioned on the cannula. In order to remove residual serum traces and free Ca2+, the heart was washed with perfusion buffer for 1 minute. After that the heart was perfused with digestion buffer containing a mixture of liberase (mixture of collagenases) and trypsin solution for 10 minutes. The perfusion was stopped, when the heart became flaccid and easily penetrable by fine tip forceps. […]\nIntracellular Ca^2+ transients were measured according to Yu et al. with modifications to fit available apparatus (Yu et al., 2013, J. Biol. Chem. 288(31): 22481-22492). […] Next the dish was protected from light and connected to an electrode system on the table of a high throughput inverted fluorescence microscope (Cytocypher). […] The alternative measurement of the bispectral emission (340 nm/380 nm) was performed with the fluorescence microscope for baseline and after 1, 5, and 10 minutes stimulation with NaCl, 100 nM RLN, and 10 nM ISO. The transients were calculated using transient calculated software from the cytocypher. The following parameters were analyzed: a) Peak Height, b) Departure velocity, and c) Return velocity."}, "[8]": {"biological_target": "T4, RXFP1 receptor (Rattus norvegicus, UniProt Q6R6I6)", "T4 construct": "expressed in transfected cells; host or cells: neonatal rat ventricular cardiomyocytes (NRVMs) transduced with AAV6-RXFP1", "T4 sequence (Q6R6I6 1-758)": "T1 sequence (Q6R6I6 1-758)", "experiment": "cAMP production (cAMP Glo assay) in RXFP1-transduced NRVMs stimulated with RLN", "format": "cell-based", "protocol": "Manufacture's manual was followed. […] The luminescence was measured with a luminometer."}, "[9]": {"biological_target": "rat (Rattus norvegicus) relaxin receptor 1 (RXFP1) with N-terminal FLAG-TAG, expressed in neonatal rat ventricular cardiomyocytes from AAV6-CMV-MLC260-FLAG-Rel1 Rattus (Rattus norvegicus) (UniProt Q6R6I6)", "experiment": "cell-based or functional assay"}}}
{"compound": "CC(C)Oc1ccccc1C(=O)Nc1ccccc1C(=O)Nc1cccc(S(=O)(=O)C(F)(F)F)c1", "note": "[ML290, 2-Isopropoxy-N-(2-(3-(trifluoromethylsulfonyl)phenylcarbamoyl)phenyl)benzamide]", "values": [{"measurement": "P-PLB(S16)", "setting": "[1]", "value": "Marked increase"}, {"measurement": "P-PLB(S16), 1 μM ML290 vs 100 nM recombinant RLN", "setting": "[2]", "value": "No difference"}, {"measurement": "P-PLB(S16)", "setting": "[2]; 1 μM ML290 for 30 minutes", "value": "Significant increase"}]}
{"compound": "RLN: recombinant relaxin H2 peptide hormone, RXFP1 agonist", "values": [{"measurement": "Heart rate (HR)", "setting": "[3]", "value": "significant increase"}, {"measurement": "dP/dt maximum", "setting": "[3]", "value": "significant increase"}, {"measurement": "Ejection fraction (EF)", "setting": "[4]", "value": "47.79±13.38", "unit": "%"}, {"measurement": "Fractional shortening (FS)", "setting": "[4]", "value": "23.98±7.64"}, {"measurement": "Ejection fraction (EF)", "setting": "[5]", "value": "50.02±18.31", "unit": "%"}, {"measurement": "RLN plasma levels", "setting": "[6]", "value": "elevated"}, {"measurement": "Ca2+ transient Departure velocity", "setting": "[7]", "value": "trend toward an increase"}, {"measurement": "Ca2+ transient Peak Height", "setting": "[7]", "value": "trend toward an increase"}, {"measurement": "Ca2+ transient Return velocity", "setting": "[7]", "value": "trend toward an increase"}, {"measurement": "RLN concentration at peak stimulation of the RXFP1 receptor (cAMP)", "setting": "[8]; 30 minutes", "value": 10, "unit": "nM"}, {"measurement": "cAMP accumulation with higher recombinant RLN concentrations", "setting": "[8]; above 10 nM RLN", "value": "no further increase"}]}
{"compound": "recombinant relaxin H2 (from UniProt P04090 25-53; P04090 162-185) (ligand)", "values": [{"measurement": "RLN concentration of peak cAMP stimulation in transduced NRVMs", "setting": "[9]", "value": 10, "unit": "nM"}]}
